Literature values in patent US20020192293A1, “Method for manufacture of extended release dosage form” (priority 2001, published 2002).
Where two headings read alike, the source gives them in different places.

Details: in words

solubility in water (listed as free-phenytoin)	SMILES	solubility in water
practically insoluble in water	O=C1NC(=O)C(c2ccccc2)(c2ccccc2)N1 [phenytoin, 5,5-diphenyl-2,4-imidazolidinedione]	poor solubility in water
–	O=C1N=C([O-])NC1(c1ccccc1)c1ccccc1.[Na+] [sodium phenytoin, Sodium phenytoin]	much more soluble
